System: HCT116 spheroids
Experiment: Multicellular tumour spheroids
Assay type: cell-based
Protocol: FIGS. 5A, 5B, 5C, 5D, 5E, 5F, 5G, 5H, 5I, 5J, 5K, 5L and 5M show how C75 disrupts or reduces the growth of HeLa, HCT116 and A549 spheroids. FIG. 5A) images show HeLa spheroids over time (3 days) before and after treatment with control (1 μM C87; n=10), 250 nM (n=6) or 500 nM (n=10) of C75. The scale bar is 100 μm. FIG. 5B) is a series images of HeLa spheroids after three days of treatment with control (500 nM C87) or 500 nM C75. The spheroids were stained for fluorescein diacetate (to detect live cells) and propidium iodide (to detect dead cells). […] The scale bar is 100 μm. FIG. 5C) is a line graph showing the change in spheroid area (μm^2) for each day and treatment as indicated. Bars show standard deviation and the asterisks are p<0.05 as determined by the student's t test. FIG. 5D) images show HeLa spheroids over 3 days before and after treatment with empty nanoparticles (control; n=3) or 250 nM of nanoparticle-encapsulated C75 (n=3). The scale bar is 100 μm. […] Bars show standard deviation and the asterisks are p<0.05 as determined by the student's t test. FIG. 5F) is a series of images of HCT116 spheroids treated with control (1 μM C87; n=10), 500 nM C75 (n=10) and 1 μM C75 (n=10). FIG. 5G) is a series images of HCT116 spheroids after six days of treatment with control (1 μM C87) or 1 μM C75. The spheroids were stained for fluorescein diacetate (live cells) and propidium iodide (dead cells). […] FIG. 5H) is a line graph showing the growth in surface area (%) of HCT116 spheroids treated with control (1 μM C87), 500 nM C75 and 1 μM C75 after six days. FIG. 5I) is a series of images of A549 spheroids treated with control (1 μM C87, n=6), 500 nM C75 (n=6), and 1 μM C75 (n=6) over 5 days. The scale bar is 100 μm. FIG. 5J) is a series of images of A549 spheroids after six days of treatment with control (750 nM C87) or 1 μM C75. The spheroids were stained for fluorescein diacetate (live cells) and propidium iodide (dead cells). […] Bars show standard deviation and the asterisks are p<0.05 as determined by the student's t test. FIG. 5L) images show A549 spheroids over 6 days before and after treatment with empty nanoparticles (control; n=3) or 500 nM of nanoparticle-encapsulated C75 (n=3). The scale bar is 100 μm. […] Bars show standard deviation and the asterisks are p<0.05 as determined by the student's t test.
FIG. 11A) is a series of images of HCT116 spheroids treated with control (DMSO), 10 nM paclitaxel, 250 nM C75 or both for 6 days. […] The scale bar for the images is 100 μm. […] As shown in the images, adding paclitaxel and C75 in combination led to regression in spheroid size compared to each treatment on its own.
The thienoisoquinoline compounds may also have potential for use in combinatorial therapies. […]

COc1ccc(S(=O)(=O)N2Cc3ccccc3-c3sc(Br)cc32)cc1 [Compound C75]
spheroid growth, single drug (10 nM paclitaxel or 250 nM C75 alone, 6 days): failed to grow
spheroid growth, combination (250 nM C75 + 10 nM paclitaxel, 6 days): regressed in size
effect on spheroids (HCT116 spheroids): regress the growth

— patent US20200276181A1, “THIENOISOQUINOLINES AND THEIR DERIVATIVES FOR TARGETING TUBULIN, CH-TOG, AURORA A KINASE, TPX2, CDK5RAP2 AND/OR ASPM” (VALORBEC, SEC, priority 2017, published 2020)
